Reference: the supplement of paper PMC10331698
± gives the standard deviation of the averaged measurements.

What was measured:
Assay in all cases: level (log10 ratio to DMSO vehicle control); higher = higher biomarker level / cell amount than vehicle control
Conditions in all cases: in DMSO
[1] = compound: NC(=O)C(F)(F)C(F)(F)F [Pentafluoropropionamide]
Description: (§1)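 BioMAP Diversity Plus panel of 12 human primary cell co-culture systems (3C, 4H, LPS, SAg, BT, BF4T, BE3C, CASM3C, HDF3CGF, KF3CT, MyoF, Mphg). Compounds were added 1 h before stimulation and left for 24 h (MyoF 48 h; BT 72 h for soluble read-outs or 6 d for IgG). Biomarkers were read by ELISA, cytotoxicity by SRB, PBMC viability and proliferation by Alamar Blue. Each well value was divided by the mean of 8 DMSO control wells on the same plate and log10 transformed; duplicate blinded samples were tested at 4 concentrations.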

[2] = compound: FC(F)(F)C(F)(F)C(F)(F)C(F)(F)C(F)(F)C(F)(F)I [Perfluoro-1-iodohexane]
Description: as §1

[3] = compound: O=C(O)C(F)(F)C(F)(F)C(F)(F)C(F)(F)C(F)(F)C(F)(F)C(F)(F)C(F)(F)C(F)(F)F [Perfluorodecanoic acid]
Description: as §1

[4] = compound: CCN(CCO)S(=O)(=O)C(F)(F)C(F)(F)C(F)(F)C(F)(F)C(F)(F)C(F)(F)C(F)(F)C(F)(F)F [N-Ethyl-N-(2-hydroxyethyl)perfluorooctanesulfonamide]
Description: as §1

[5] = compound: O=C(O)C(F)(F)OC(F)(F)C(F)(F)OC(F)(F)F [Perfluoro-3,6-dioxaheptanoic acid]
Description: as §1

[6] = compound: O=C(O)C(F)(F)C(F)(F)C(F)(F)C(F)(F)C(F)(F)C(F)(F)C(F)(F)C(F)F [9-H-Perfluorononanoic acid]
Description: as §1

[7] = compound: NCC(F)(F)C(F)(F)C(F)(F)C(F)(F)C(F)(F)C(F)(F)C(F)(F)F [1H,1H-Perfluorooctylamine]
Description: as §1

Test System | level (log10) ([1]; 6700 nM) | level (log10) ([1]; 20000 nM) | level (log10) ([1]; 60000 nM) | level (log10) ([2]; 6700 nM) | level (log10) ([2]; 20000 nM) | level (log10) ([2]; 60000 nM) | level (log10) ([3]; 6700 nM) | level (log10) ([3]; 20000 nM) | level (log10) ([4]; 6700 nM) | level (log10) ([4]; 20000 nM) | level (log10) ([5]; 6700 nM) | level (log10) ([5]; 20000 nM) | level (log10) ([5]; 60000 nM) | level (log10) ([6]; 6700 nM) | level (log10) ([6]; 20000 nM) | level (log10) ([6]; 60000 nM) | level (log10) ([7]; 6700 nM) | level (log10) ([7]; 20000 nM) | level (log10) ([7]; 60000 nM)
HDF3CGF:CXCL9/MIG | -0.016 ± 0.0042 | 0.0095 ± 0.00071 | 0.0015 ± 0.0078 | 0 ± 0.0028 | -0.021 ± 0.0057 | -0.0325 ± 0.018 | -0.069 ± 0.048 | -0.27 ± 0.061 | -0.0065 ± 0.015 | -0.159 ± 0.023 | -0.011 ± 0.014 | 0.0145 ± 0.0064 | -0.02 ± 0.047 | -0.0475 ± 0.022 | -0.052 ± 0.0071 | -0.0735 ± 0.016 | -0.006 ± 0.018 | -0.0205 ± 0.011 | -0.0115 ± 0.005
HDF3CGF:MMP-1 | 0.006 ± 0.0085 | -0.011 ± 0.0085 | -0.01 | 0.0065 ± 0.0035 | -0.0075 ± 0.029 | -0.034 ± 0.017 | -0.041 ± 0.0028 | -0.174 ± 0.08 | 0.043 ± 0.013 | 0.0065 ± 0.026 | -0.009 ± 0.0099 | 0.0085 ± 0.013 | -0.014 ± 0.03 | -0.047 ± 0.011 | -0.0915 ± 0.013 | -0.0745 ± 0.0078 | -0.012 ± 0.0014 | 0.0015 ± 0.0035 | 0.013 ± 0.0014
HDF3CGF:SRB | -0.0105 ± 0.011 | 0.0265 ± 0.079 | 0.0445 ± 0.086 | 0.021 ± 0.035 | 0.0085 ± 0.018 | -0.0085 ± 0.067 | 0.0725 ± 0.044 | 0.131 ± 0.016 | -0.127 ± 0.011 | -0.153 ± 0.084 | 0 ± 0.013 | -0.015 ± 0.018 | 0.0175 ± 0.039 | 0.022 ± 0.023 | 0.0825 ± 0.03 | 0.148 ± 0.034 | -0.0315 ± 0.0078 | 0.0335 ± 0.046 | 0.0315 ± 0.12
BE3C:SRB | -0.0015 ± 0.0021 | -0.001 | -0.0015 ± 0.005 | -0.0125 ± 0.005 | 0.001 ± 0.017 | 0 ± 0.013 | -0.0245 ± 0.005 | -0.664 ± 0.021 | -0.0175 ± 0.011 | -0.04 ± 0.0071 | 0.0005 ± 0.0064 | -0.0025 ± 0.00071 | 0.0015 ± 0.0064 | -0.0075 ± 0.0035 | -0.007 ± 0.0057 | -0.0105 ± 0.0035 | 0 | 0.0035 ± 0.00071 | 0.013 ± 0.024
KF3CT:CD54/ICAM-1 | -0.009 ± 0.0057 | -0.0045 ± 0.016 | 0.006 ± 0.018 | 0.001 ± 0.0085 | 0.008 ± 0.021 | 0 ± 0.011 | 0.0095 ± 0.013 | -0.003 ± 0.0028 | 0.0415 ± 0.0078 | 0.002 ± 0.0028 | -0.0055 ± 0.0035 | -0.0115 ± 0.00071 | -0.02 ± 0.011 | -0.0045 ± 0.016 | -0.024 ± 0.0014 | -0.0365 ± 0.0064 | 0 | 0.0015 ± 0.005 | 0.011 ± 0.0057
CASM3C:CD141/Thrombomodulin | -0.023 ± 0.034 | -0.0315 ± 0.011 | -0.0555 ± 0.015 | 0.0055 ± 0.015 | -0.006 ± 0.0028 | -0.004 ± 0.0028 | -0.015 ± 0.031 | -0.0125 ± 0.029 | 0.078 ± 0.014 | 0.191 ± 0.013 | 0.032 ± 0.0085 | 0.019 ± 0.03 | 0.0295 ± 0.013 | -0.003 ± 0.0099 | -0.0075 ± 0.0035 | 0.0075 ± 0.0021 | -0.017 ± 0.025 | -0.0055 ± 0.005 | 0.031 ± 0.045
HDF3CGF:TIMP-1 | -0.0265 ± 0.0092 | -0.01 ± 0.018 | 0.0045 ± 0.032 | -0.014 ± 0.021 | -0.017 ± 0.025 | -0.0385 ± 0.016 | 0.016 ± 0.037 | -0.0995 ± 0.03 | 0.005 ± 0.081 | -0.0605 ± 0.074 | -0.0265 ± 0.029 | -0.012 ± 0.052 | -0.0655 ± 0.074 | -0.04 ± 0.0042 | 0.008 ± 0.0071 | 0.0385 ± 0.0021 | -0.0265 ± 0.077 | -0.0335 ± 0.036 | -0.0405 ± 0.036
CASM3C:Serum Amyloid A | 0.0045 ± 0.015 | -0.0055 ± 0.0035 | 0.0245 ± 0.005 | 0.0035 ± 0.042 | 0.008 ± 0.035 | 0.007 ± 0.025 | 0.035 ± 0.031 | 0.0345 ± 0.026 | 0.0875 ± 0.037 | 0.129 ± 0.042 | -0.038 ± 0.055 | -0.014 ± 0.0085 | -0.002 ± 0.086 | -0.0295 ± 0.035 | -0.02 | 0.0435 ± 0.053 | 0.0345 ± 0.036 | 0.043 ± 0.069 | 0.015 ± 0.061
lMphg:SRB | 0.004 ± 0.0071 | -0.0025 ± 0.0092 | -0.001 ± 0.0014 | -0.0055 ± 0.00071 | -0.0025 ± 0.0035 | 0.0035 ± 0.0078 | 0.009 ± 0.0085 | 0.004 ± 0.0057 | -0.0215 ± 0.0078 | -0.0435 ± 0.022 | -0.0015 ± 0.0092 | 0.0025 ± 0.011 | -0.002 ± 0.016 | 0.0005 ± 0.00071 | 0.002 ± 0.0057 | -0.0115 ± 0.005 | -0.008 ± 0.0085 | 0.001 ± 0.0042 | -0.002 ± 0.0099
HDF3CGF:TIMP-2 | -0.0185 ± 0.026 | 0.008 ± 0.0057 | 0.033 ± 0.013 | 0.017 ± 0.038 | 0.0295 ± 0.018 | 0.031 ± 0.045 | -0.006 ± 0.028 | -0.349 ± 0.17 | 0.136 ± 0.0057 | 0.108 ± 0.0071 | -0.018 ± 0.062 | 0.003 ± 0.047 | 0.008 ± 0.045 | -0.07 ± 0.086 | -0.0755 ± 0.028 | -0.0595 ± 0.049 | -0.03 ± 0.059 | -0.013 ± 0.052 | -0.0245 ± 0.016
lMphg:CXCL8/IL-8 | 0.007 ± 0.0071 | 0.001 ± 0.04 | -0.004 ± 0.013 | -0.0075 ± 0.039 | 0.0325 ± 0.016 | 0.0585 ± 0.064 | 0.0415 ± 0.049 | 0.04 ± 0.023 | -0.047 ± 0.048 | -0.032 ± 0.016 | 0.026 ± 0.017 | 0.068 ± 0.051 | 0.167 ± 0.074 | 0.033 ± 0.021 | 0.0415 ± 0.019 | 0.112 ± 0.0014 | 0.008 ± 0.031 | 0.018 ± 0.025 | 0.01 ± 0.013
HDF3CGF:Proliferation 72hr | 0.0225 ± 0.018 | 0.045 ± 0.042 | 0.076 ± 0.013 | -0.0315 ± 0.019 | -0.028 ± 0.0014 | -0.468 ± 0.57 | 0.115 ± 0.025 | -0.934 ± 0.037 | -0.391 ± 0.079 | -0.746 ± 0.094 | 0.0205 ± 0.05 | 0.055 ± 0.034 | 0.06 ± 0.0014 | 0.062 ± 0.018 | 0.0905 ± 0.049 | -0.0045 ± 0.098 | -0.041 ± 0.045 | 0.004 ± 0.035 | -0.016 ± 0.041
